As a reminder, the pIC50 is the negative decadic logarithm of the IC50, by convention in mol/L. Broadly, the melting point is the temperature, or range, at which the solid turns liquid.

pIC50: −log10 of the molar value. Where a name gives a salt, the structure may show the parent alone.

The first data set concerns rat cerebellar granule neurons. In words: Effect of JNK inhibitors on LY294002-induced cytotoxicity in cerebellar granule cells (MTT). The class given is cell-based. The settings on record: 3–100 μM added to cells cultured in high potassium medium; FIG. 1. The protocol:
7. Effect of JNK Inhibitors on Cytotoxicity in Cerebellar Granule Cells
LY294002 is a reversible inhibitor of PI3K and activates JNKs with subsequent cell death. We have investigated the ability of the JNK inhibitors to protect against LY294002-induced cell death in a cerebellar granule cell preparation.
Primary cerebellar cell cultures were prepared from 7-day-old Sprague-Dawley rats. Cerebella were carefully collected, dissected free of meninges and cut into 5–7 parts. Tissues were gently mechanically dissociated after digestion with VERSENE (5 minutes, 37° C.). The cells were seed onto 96-well plates pre-coated with poly-D-lysine (Becton-Dickinson) at a final density of 10^5 cells per well. Cultures were maintained at 37° C. in a humidified atmosphere with 5% CO2 and used after the 9th day of culture in DMEM medium complemented with 5% fetal calf serum, 5% horse serum and 30 mM potassium chloride in the presence of an anti-mitotic (10 μM cytosine arabinoside). The drugs were directly added to the culture at the indicated concentrations for 24 hours. Neuronal viability was assessed quantitatively by the colorimetric measurement of Mosmann or MTT assay (1983, J. Immunol. Methods, 65, 55–63). Each condition was tested in sextuplicate or triplicate and the mean values obtained analyzed statistically by one-way ANOVA, followed by Dunnett's multiple comparison test. […]
For `O=c1cc(N2CCOCC2)oc2c(-c3ccccc3)cccc12` [LY294002, reference compound], the “neurotoxic effect on cerebellar granule neurons” value is “induced neuronal death”.

Still in this data set, the particulars now being: Neuron; LY294002 30 μM; rat cerebellar granule cells after 9 days of culture; 24 hours; MTT; FIG. 2; read-out: protection against LY294002-induced toxicity, IC50.
As to `N#Cc1c(C(N)=O)c2n(c1C1CC1)CCN(C(=O)Nc1ccc(F)cc1)C2` [Example 9(a), 7-Cyano-6-cyclopropyl-3,4-dihydro-1H-pyrrolo[1,2-a]pyrazine-2,8-dicarboxylic acid 8-amide 2-[(4-fluorophenyl)amide]], the negative-log IC50 (pIC50) was 5.15.

Test system in another data set: not given
Test: not given
Conditions: not given
In the case of `N#Cc1c(C(N)=O)c2n(c1-c1cccnc1)CCN(C(=O)Nc1ccc(F)cc1)C2`, the melting point is 275 to 279 °C. Turning to `N#Cc1ccc(NC(=O)N2CCn3c(c(C(N)=O)c(C#N)c3-c3cccnc3)C2)cc1`, the melting point was in the range of 291 to 296 °C. Molecule `CS(=O)(=O)N1CCC(c2c(C#N)c(C(N)=O)c3n2CCN(C(=O)Nc2ccc(F)cc2)C3)CC1` yielded a melting point of 177 to 180 °C. The same measure, in the same setting: to `CS(=O)(=O)N1CCC(c2c(C#N)c(C(N)=O)c3n2CCN(C(=O)Nc2ccc(C#N)cc2)C3)CC1` belongs 218 to 221 °C. The molecule `N#Cc1ccc(NC(=O)N2CCn3c(c(C(N)=O)c(Cl)c3C3CC3)C2)cc1` yielded a melting point of 196 to 198 °C. On the same count and under the same terms, the figure for `NC(=O)c1c(Cl)cn2c1CN(C(=O)Nc1ccc(F)cc1)CC2` is 229 to 231 °C; for `COc1ccc(NC(=O)N2CCn3c(c(C(N)=O)c(Cl)c3-c3ccccc3)C2)cc1` it is 246 to 248 °C. Regarding `NC(=O)c1c(Cl)cn2c1CN(C(=O)Nc1ccc(-c3ccccn3)s1)CC2`, the melting point was in the range of 249 to 250 °C. On to `Cc1ccc(-c2c(Cl)c(C(N)=O)c3n2CCN(C(=O)Nc2ccc(F)cc2)C3)cn1`, for which the melting point is 235 to 238 °C (dec.). Molecule `Cc1ccc(-c2c(Cl)c(C(N)=O)c3n2CCN(C(=O)Nc2ccc4ncccc4c2)C3)cn1` returned a melting point of 221 to 222 °C. For `N#Cc1c(C(N)=O)c2n(c1C1CCOCC1)CCN(C(=O)Nc1cccc(C(F)(F)F)c1)C2`, the melting point is 200 to 202 °C (dec.). As for `N#Cc1c(C(N)=O)c2n(c1C1CCOCC1)CCN(C(=O)Nc1ccc3ncccc3c1)C2`, the melting point is 296 to 298 °C (dec.).

`N#Cc1c(C(N)=O)c2n(c1C(F)(F)F)CCN(C(=O)Nc1ccc(C(F)(F)F)cc1)C2`: the melting point is 243 to 246 °C (dec.). The molecule `N#Cc1c(C(N)=O)c2n(c1C1CC1)CCN(C(=O)Nc1ccc(C(F)(F)F)nc1)C2` gave a melting point of 149 to 153 °C. In the case of `N#Cc1c(C(N)=O)c2n(c1-c1ccccc1)CCN(C(=O)Nc1ccc(C(=O)O)cc1)C2`, the melting point lay in the range of 286 to 288 °C. Regarding `NC(=O)c1c(Cl)c(-c2ccccc2)n2c1CN(C(=O)Cc1ccccc1O)CC2`, the melting point is 176 to 180 °C. The molecule `NC(=O)c1c(Cl)c(-c2ccccc2)n2c1CN(C(=O)Nc1cccnc1)CC2` showed a melting point of 261 to 263 °C. Molecule `NC(=O)c1c(Cl)c(-c2ccccc2)n2c1CN(C(=O)CCC1CCCCC1)CC2` yielded a melting point of 181 to 182 °C. In turn, `NC(=O)c1c(Cl)c(-c2ccccc2)n2c1CN(S(=O)(=O)c1cccs1)CC2` displayed a melting point of 240 to 242 °C. In turn, `N#Cc1c(C(N)=O)c2n(c1C1CC1)CCN(S(=O)(=O)c1ccc(C(F)(F)F)cc1)C2` gave a melting point of 253 to 256 °C. `NC(=O)c1c(Cl)c(-c2cccnc2)n2c1CN(S(=O)(=O)c1ccc(C(F)(F)F)cc1)CC2` yielded a melting point of 205 to 206 °C. `NC(=O)c1c(Cl)cn2c1CN(S(=O)(=O)c1ccc(-c3ccccn3)s1)CC2` returned a melting point of 213 to 214 °C. In the case of `NC(=O)c1c(Cl)c(-c2ccccc2)n2c1CN(S(=O)(=O)Nc1ccccc1)CC2`, the melting point lay in the range of 207 to 208 °C. `NC(=O)c1c(Cl)c(-c2ccccc2)n2c1CN(C(=O)Oc1ccccc1)CC2` came in with a melting point of 196 to 198 °C.

In turn, `COc1ccc(NC(=S)N2CCn3c(c(C(N)=O)c(Cl)c3-c3ccccc3)C2)cc1` registered a melting point of 176 to 178 °C. `COc1ccc(N/C(=N\C#N)N2CCn3c(c(C(N)=O)c(Cl)c3-c3ccccc3)C2)cc1` came in with a melting point of 170 °C. On to `COc1ccc(NC(=O)N2CCn3c(-c4ccccc4)cc(C(N)=O)c3C2)cc1`, for which the melting point lay within 170 to 173 °C. `N#Cc1c(C(N)=O)c2n(c1C1CC1)CCN(C(=O)Nc1ccc(C(=O)NCCN3CCOCC3)cc1)C2`: the melting point is 197 to 199 °C.

In turn, `Cc1c(Cl)c(C(N)=O)c2n1CCN(C(=O)Nc1cccc(F)c1)C2` displayed a melting point of 229 to 231 °C. `N#Cc1c(C(N)=O)c2n(c1-c1ccccc1)CCN(C(=O)Nc1cccc(F)c1)C2` came in with a melting point of 219 to 220 °C. In the case of `NC(=O)c1c(Cl)c(C2CC2)n2c1CNCC2` (as salt: trifluoroacetic acid salt), the melting point was 237 to 239 °C. For `NC(=O)c1c(Cl)c(C2CC2)n2c1CN(C(=O)Nc1ccc(F)cc1)CC2` [Example 3], the melting point was in the range of 266 to 267 °C. Take `N#Cc1c(C(N)=O)c2n(c1C1CC1)CCN(C(=O)Nc1ccc(F)cc1)C2` [Example 9(a), 7-Cyano-6-cyclopropyl-3,4-dihydro-1H-pyrrolo[1,2-a]pyrazine-2,8-dicarboxylic acid 8-amide 2-[(4-fluorophenyl)amide]]: the melting point lay in the range of 232 to 234 °C. `NC(=O)c1c(Cl)c(C2CC2)n2c1CN(C(=O)Nc1ccc(F)cc1)CC2` [Example 16(a)]: the melting point was 230 to 231 °C.
